# Biological target: angiotensin II receptor
# Assay: Adrenal Glomerulosa Test System: displacement of I^125-angiotensin II binding to rat adrenal membranes
# Conditions: I^125-angiotensin II 0.1 nM, room temperature, 90 minutes, KI by Cheng Prusoff equation
# Experimental: The compounds of Formula I are potent effective antagonists of angiotensin II. The ability of representative compounds of Formula I to block angiotensin II receptor binding was determined using the adrenal glomerulosa assay. The ability to antagonize angiotensininduced vasoconstriction was evaluated in the rabbit aorta test system.
# Binding of I^125 -angiotensin II to adrenal membranes was routinely carried out in 96-well filtration plates. Adrenal membranes were prepared from the capsular portion (glomerulosal layer attached) of rat adrenal glands by differential centrifugation. Briefly, capsules were homogenized in a solution containing sucrose, 250 mM; MgCl2, 1 mM; and tris, 5 mM at pH 7.5 and 4° C. using a polytron at setting 5 for 20 seconds. The homogenate was stirred gently for 15 minutes at 4° C. and then centrifuged 10 minutes, at 1000×g, 4° C. The supernatant was centrifuged 30 minutes, at 30,000×g, 4° C., and the resulting pellet resuspended in 50 mM tris. Membrane preparations were stored in aliquots at -70° C. until used. Binding of I^125 -angiotensin II to adrenal membranes was performed at room temperature for 90 minutes in 96-well plates containing a hydrophilic polyvinylidene fluoride membrane (0.45 μm, Millipore-GV multiscreen). Each 250 μl incubate contained the following (final concentration): tris, 50 mM; NaCl, 120 mM; MgCl2, 5 mM; dithiothrietol 1 mM; bovine serum albumin, 0.05%; I^125 -angiotensin II, 0.1 nM; and adrenal membrane protein, 8-15 μg. Antagonists were added in concentrations from 10 nM to 100 μM. Non-specific binding was measured in the presence of 0.1 μM Sar1, Ile8 angiotensin II. Binding was terminated by vacuum filtration. Receptor-ligand complex trapped on filters was washed 3 times with 300 μl ice-cold wash solution (tris, 50 mM; NaCl, 120 mM; MgCl2, 5 mM; dithiothrietol, 1 mM). Filter discs were dried, punched out and counted in a gamma counter at 52% efficiency. Specific binding represented 96% of total binding (approximately 150 fmol angiotensin II/mg protein). The molar concentration (IC50) of the inhibitor that displaced 50% of the binding of 1125 angiotensin II for each compound was calculated using a 4 parameter logistics model (NonLin, SAS Institute). Data are expressed as KI (μm) calculated using the Cheng Prusoff equation. See Cheng et al. Biochemo Pharmacol. 22: 3099 (1973).
row,Compound,Ki [µM]
1,CCCCCCC(C(=O)O)n1ncc2cc(-c3ccccc3-c3nn[nH]n3)ccc21 (stereo not shown) [27 2H],5.43
2,"CCCCCCC(C(=O)O)n1ccc2cc(-c3ccccc3C(=O)O)ccc21 (stereo not shown) [Example 1, 2[-5-(2-Carboxyphenyl)indol-1-yl]octanoic acid]",3.86
3,"CCCCCCC(C(=O)O)n1ccc2cc(-c3cccc(O)c3C(=O)O)ccc21 (stereo not shown) [Example 2, 2-[5-(2-Carboxy-3-hydroxyphenyl)indol-1-yl]octanoic acid]",9.45
4,"CCCCCCC(C(=O)O)n1cnc2cc(-c3ccccc3-c3nn[nH]n3)ccc21 (stereo not shown) [Example 3, 2-[5-[2-(2H-Tetrazol-5-yl)phenyl]-1H-benzimidazol-1-yl]octanoic acid]",5.6
5,CCCCCCC(C(=O)O)n1c(C)nc2cc(-c3ccccc3-c3nnn[nH]3)ccc21 (stereo not shown) [Example 5],0.36
6,"CCCCCCC(C(=O)O)n1c(C(F)(F)F)nc2cc(-c3ccccc3-c3nn[nH]n3)ccc21 (stereo not shown) [Example 6, 2-[5-[2-(2H-Tetrazol-5-yl)phenyl]-2-trifluoromethyl-1H-benzimidazol-1-yl]octanoic acid]",0.085
7,"CCCCCCC(C(=O)N1CCC[C@H]1C(=O)O)n1cnc2cc(-c3ccccc3-c3nn[nH]n3)ccc21 (stereo partly drawn) [Example 9, 1-[1-Oxo-2-[5-[2-(2H-tetrazol-5-yl)phenyl]-1H-benzimidazole-1-yl]octyl]-L-proline]",0.029
8,"CCCCCCC(C(=O)N1CC(O)C[C@H]1C(=O)O)n1cnc2cc(-c3ccccc3-c3nn[nH]n3)ccc21 (stereo partly drawn) [Example 13, 1-[1-oxo-2-[5-[2-(2H-tetrazol-5-yl)phenyl]-1H-benzimidazole-1-yl]octyl]-4-hydroxy-L-proline]",0.0042
9,"CCCCCCC(c1nccn1C)n1cnc2cc(-c3ccccc3-c3nnn[nH]3)ccc21 (stereo not shown) [Example 14, 1-Methyl-2-[1-[5-2-(2H-Tetrazol-5-yl)phenyl-1H-benzimidazol-1-yl]heptyl]-1H-imidazole]",1.08
10,"CCCCCCC(CC(=O)O)n1ccc2cc(-c3ccccc3-c3nn[nH]n3)ccc21 (stereo not shown) [Example 21, 3-[5-[2-(2H-Tetrazol-5-yl)phenyl]indol-1-yl]nonanoic Acid]",2.26
11,"CCCCCC(C(=O)O)n1ccc2cc(-c3ccccc3-c3nn[nH]n3)ccc21 (stereo not shown) [Example 22, 2-[5-[2-(2H-Tetrazol-5-yl)phenyl]indol-1-yl]heptanoic Acid]",1.72
12,"CCCCCCC(C(=O)O)n1cc(Cc2ccccc2)c2cc(-c3ccccc3-c3nn[nH]n3)ccc21 (stereo not shown) [Example 24, 2-[3-benzyl-5-[2-(2H-tetrazol-5-yl)phenyl]indol-1-yl]octanoic Acid]",13.7
13,"CCCCCCC(C(=O)O)n1cc(Br)c2cc(-c3ccccc3-c3nnn[nH]3)ccc21 (stereo not shown) [Example 26, 2-[3-Bromo-5-[2-[2H-tetrazol-5-yl)phenyl]indo-1-yl]octanoic Acid]",5.72
14,"CCCCC(c1cccc(C(F)(F)F)c1)n1ccc2cc(-c3ccccc3-c3nn[nH]n3)ccc21 (stereo not shown) [Example 28, 5-[2-(2H-tetrazol-5-yl)phenyl]-1-[1-(3-trifluoromethylphenyl)-1-pentyl]indole]",14.3
15,"CCCCC(c1ccc(C(F)(F)F)cc1)n1ccc2cc(-c3ccccc3-c3nn[nH]n3)ccc21 (stereo not shown) [Example 29, 5-[2-(2H-tetrazol-5-yl)phenyl]-1-[1-(4-trifluoromethylphenyl)-1-pentyl]indole]",19.2
16,CCCCCCC(c1nnn[nH]1)n1cnc2cc(-c3ccccc3-c3nnn[nH]3)ccc21 (stereo not shown) [Example 34],0.062
17,"CCCCCCC(C(=O)N(C)CC(=O)O)n1cnc2cc(-c3ccccc3-c3nn[nH]n3)ccc21 (stereo not shown) [Example 37, 1-[1-Oxo-2-[5-[2-(2H-tetrazol-5-yl]phenyl]-1H-benzimidazol-1]octyl]-N-methylglycine]",0.0814
18,CCCCCCC(C(=O)N1CC2(C[C@H]1C(=O)O)OCCO2)n1cnc2cc(-c3ccccc3-c3nn[nH]n3)ccc21 (stereo partly shown) [Example 40],0.25
19,"CCCCCCC(C(=O)N[C@@H](CC(=O)O)C(=O)O)n1cnc2cc(-c3ccccc3-c3nn[nH]n3)ccc21 (stereo partly drawn) [Example 41, N-[1-Oxo-2-[5-[2-(2H-tetrazol-5-yl]phenyl]-1H-benzimidazol-1-yl]octyl]-L-aspartic Acid]",0.1
20,"CCCCCCC(C(=O)N[C@@H](CO)C(=O)O)n1cnc2cc(-c3ccccc3-c3nn[nH]n3)ccc21 (stereo partly drawn) [Example 42, N-[1-oxo-2-[5-[2-(2H-tetrazol-5-yl]phenyl]-1H-benzimidazol-1-yl]octyl]-L-serine]",0.265
21,CCCCCCC(C(=O)N1CCC1C(=O)O)n1cnc2cc(-c3ccccc3-c3nn[nH]n3)ccc21 (stereo not shown) [Example 43],0.069
22,CCCCCCC(C(=O)N1CCC(C(=O)O)C1)n1cnc2cc(-c3ccccc3-c3nn[nH]n3)ccc21 (stereo not shown) [Example 44],0.199

# Biological target: T1, rabbit aorta (Oryctolagus cuniculus, UniProt P34976)
# T1 sequence (P34976 1-359): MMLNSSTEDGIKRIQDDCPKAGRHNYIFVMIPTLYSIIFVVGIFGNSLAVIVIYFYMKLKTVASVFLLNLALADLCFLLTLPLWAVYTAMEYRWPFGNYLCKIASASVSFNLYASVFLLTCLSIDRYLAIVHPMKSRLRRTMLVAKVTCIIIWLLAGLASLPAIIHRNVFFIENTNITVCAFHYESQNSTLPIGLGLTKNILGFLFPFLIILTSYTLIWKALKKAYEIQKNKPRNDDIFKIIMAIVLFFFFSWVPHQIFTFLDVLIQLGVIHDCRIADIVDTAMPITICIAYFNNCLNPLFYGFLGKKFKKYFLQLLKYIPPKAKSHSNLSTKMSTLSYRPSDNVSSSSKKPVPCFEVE
# Assay: Rabbit Aorta Test System: antagonism of angiotensin II-induced contraction of thoracic aorta rings
# Type: cell-based, New Zealand white rabbit
# Conditions: pA2 = -log KB; AII concentration response curve 10^-10 to 10^-7 M, 30 minutes incubation, 37° C.
row,Compound,Rabbit Aorta (pA2)
1,1-[5(and 6)-[2-(2H-Tetrazol-5-yl)phenyl]-2-pentyl-1H-benzimidazol-1-yl]acetic acid [Example 61],5.4
2,2-[1-Hexyl-5-[2-(2H-tetrazol-5-yl)phenyl]-1H-benzimidazol-2-yl]propionic Acid [Example 30],6.5
3,4-Butoxy-2-[5(and 6)-[2-(2H-tetrazol-5-yl)phenyl]-1H-benzimidazol-1-yl]-butanoic acid [Example 11],6.7
4,CCCCCC#CC(C(=O)O)n1cnc2cc(-c3ccccc3-c3nn[nH]n3)ccc21 (stereo not shown) [Example 16],7.2
5,"CCCC/C=C/C(C(=O)O)n1ccc2cc(-c3ccccc3-c3nn[nH]n3)ccc21 (stereo not drawn) [Example 25A, 2-[5-[2-(2H-Tetrazol-5-yl)phenyl]indol-1-yl]-3-trans-octenoic acid]",6.5
6,"CCCC/C=C\C(C(=O)O)n1ccc2cc(-c3ccccc3-c3nn[nH]n3)ccc21 (stereo not drawn) [Example 25B, 2-[5-[2-(2H-tetrazol-5-yl)phenyl]indol-1-yl]-3-cis-octenoic acid]",7.3

# From patent publication US5612360A, “Angiotensin II antagonists” (Eli Lilly and Company, priority 1993, dated 1997)
